The values that follow come from patent EP0370481A2, “Pharmaceutical preparations for the enhanced resorption of antibacterial compounds” (priority 1988, dated 1990).

A short description of data set [1]: Rectal absorption in vivo (monkeys): suppositories, plasma level. From the text:
Für diesen Versuch wurden männliche und weibliche erwachsene Affen (Papio anubis und Papio hamadryas) im Gewicht vom 12-27 kg verwendet, die 24 Stunden vor der Verabreichung des Antibiotikums fasten gelassen wurden, dann durch i.m.-Injektionen von Kefamin Hydrochlorid vor der Verabreichung des Antibiotikums sediert wurden. Aus den nachstehend beschriebenen Formulierungen wurden Suppositorien hergestellt die den Tieren verabreicht wurden. Die Rektalöffnungen wurden dann mit Klebeband verschlossen, um ein Herausdrücken der Suppositorienmasse zu vermeiden.
Zur Messung der Resorption des Antibiotikums in den Blutstrom wurden Blutproben aus der Femoralregion vor der Verabreichung des Antibiotikums und 15, 30, 60, 120, 240, 360 und 480 Minuten danach entnommen. Proben wurden zentrifugiert und wie oben beschrieben vermessen.

The nature of data set [2]: Enteral absorption in vivo (rats): intraduodenal injection, antibiotic plasma level by agar-plate bioassay. The conditions noted are these: Dosis = 5 mg/0,5 ml. The source says: Weibliche Ratten im Gewicht von etwa 250 g wurden über Nacht fasten gelassen und mit Metofan anästhesiert. Die Antibiotika wurden in Lösung mit oder ohne Resorptionsver, stärker nach Bauchschnitt in das Duodenum unterhalb des Magenausgangs injiziert. Für Vergleichszwecke wurde die Lösung alternativ intravenös in die Schwanzvene appliziert.
Die Konzentration des Antibiotikums im Plasma der Ratte wurde nach verschiedenen Zeitintervallen nach intravenöser oder enteraler Verabreichung bestimmt. Blutproben wurden aus der Schwanzvene des Versuchstiers vor der Verabreichung des Antibiotikums und 5, 10, 20, 40, 60, 120, 240 und 360 Minuten danach entnommen, danach zentrifugiert und das Plasma bis zur Analyse eingefroren.
Antibiotika, die nicht an Plasma gebunden waren, wurden mit Wasser verdünnt und gegen in Wasser hergestellte Standards geprüft. Für gebundene Antibiotika wurde der Einfluss der Proteinbindung eliminiert durch Verdünnen aller Standardlösungen und Proben im gesammelten Plasma. Im Fall von Ceftriaxon in Cefazolin wurde der Effekt der Bindung dadurch berücksichtigt, dass Plasmaproben mit Acetonitril mit einem Verdünnungsfaktor 1:12 deproteinisiert und gegen eine Standardkurve in Wasser verdünnt gemessen wurden. Antibiotikaspiegel wurden wie unten angegeben auf Agarplatten ermittelt.
Die Platten wurden bei 37°C über Nacht bebrütet und die Hemmzonen auf die nächsten […] abgelesen. Die Berechnungen wurden mittels einer Autoassaymaschine (Giles Scientific, Inc., New York) vorgenommen. Vergleiche J.V. Bennett et al., Applied Microbiology 14, 170-177 (1966).

Data set [3] in a line: Oral absorption in vivo (monkeys): enteric-coated hard gelatin capsules by gavage, plasma bioassay. Particulars: for Cmax: monkey, plasma. How it is done:
Erwachsene Affen (Papio anubis und Papio hamadryas) im Gewicht von 12-30 kg wurden über Nacht fasten gelassen, dann durch i.m.-Injektion von Ketaminhydrochlorid vor der Verabreichung des Antibiotikums sediert. Jeder Affe erhielt vier Hartgelatinekapseln durch Schlundsonde mit der folgenden Zusammensetzung:
Die Kapseln wurden mit einem Ueberzug von Polyvinylacetatphthalat (etwa 8% des Kapselgewichtes versehen).
1 ml Pro Blutproben wurden aus der Femoralregion jedes Affen mit einer heparinisierten 3-ml Spritze entnommen. Die Proben wurden vor der Verabreichung des Antibiotikums und 15, 30, 60, 120, 240, 360, 480, 600 und 720 Minuten danach entnommen. Die Blutproben wurden zentrifugiert und das Plasma nach Deproteinisierung mit Acetonitril einem Bioassay unterworfen.

Data set [4] is described as follows: Oral absorption in vivo (dogs): enteric-coated hard gelatin capsules by gavage, plasma level. Particulars: for Cmax: male, beagle, dog, plasma. From the text: Für diesen Versuch wurden männliche Beagle-Hunde im Gewicht von 10-14 kg verwendet, die 2-3 Hartgelatinekapseln durch die Schlundsonde erhielten. Die Kapseln hatten folgende Zusammensetzung:
Die Kapseln waren mit einem Ueberzug von Polyvinylacetatphthalat (etwa 8% des Kapselgewichtes versehen).
Die Plasmakonzentrationen wurden von Ceftriaxon vor der Verabreichung und 10, 20, 40, 60, 120, 180 und 240 Minuten nach der Verabreichung ermittelt. Die Messungen wurden in Blutplasma nach Deproteinisierung weiter oben beschrieben ermittelt.

A short description of data set [5]: Enteral absorption in vivo (dogs): capsules through a modified Thomas cannula into the proximal jejunum, plasma level and bioavailability. The conditions noted are these: for Cmax: beagle, dog, plasma. How it is done: Als Versuchstiere wurden sechs Beagle-Hunde im Gewicht von etwa 10-16 kg eingesetzt, denen eine modifizierte Thomaskanüle in das distale Duodenum eingesetzt worden war. […] Die Kapseln wurden durch die modifizierte Thomaskanüle in das proximale Jejunum appliziert. Die Dosierung war 20-50 mg Ceftriaxon pro kg Körpergewicht.
Die Plasmakonzentrationen von Ceftriaxon wurden vor der Verabreichung und 10, 20, 40, 60, 120, 180 und 240 Minuten nach der Verabreichung ermittelt. Zur Erstellung einer Standardkurve wurde Ceftriaxon mit normalem Hundeplasma verdünnt und deproteinisiert. Die Fläche unter der Kurve (AUC) wurde für jede Verabreichungsweise bestimmt. Aus diesen Bestimmungen wurde die Bioverfügbarkeit wie folgt berechnet. [formula]
Wenn keine i.v.-Daten für den gleichen enteral verwendeten Dosisspiegel verfügbar waren, wurde die folgende Gleichung angewandt: [formula]

Where [6] appears, read: rectal suppository, Kontrolle ohne Resorptionsverstärker.
Setting [7] is: rectal suppository, Mit Resorptionsverstärker System: 500 mg Antibiotikum, 125 mg Laureth-12, 250 mg Labrasol, 1125 mg Witepsol H15.
Setting [8] is: Kontrollwert: Ceftriaxonnatrium 300 mg in the same capsule without absorption enhancer.
Where [9] appears, read: 2-3 enteric-coated capsules each 300 mg Ceftriaxonnatrium, 225 mg Labrasol, 75 mg Laureth-12, 380 mg Witepsol H15.
Where [10] appears, read: both sexes, monkey, plasma, 500 mg, rectal suppository, Mit Resorptionsverstärker System: 500 mg Antibiotikum, 125 mg Laureth-12, 250 mg Labrasol, 1125 mg Witepsol H15, read-out: Cmax Bereich.
Setting [11] is: both sexes, monkey, plasma, rectal suppository, Kontrolle ohne Resorptionsverstärker, read-out: Cmax Bereich.
Where [12] appears, read: enteral (proximal jejunum), 2 capsules with 210 ml Ceftriaxonnatrium in 280 mg WITEPSOL H15 + 157,5 mg Labrasol + 52,5 mg Laureth-12, 20-50 mg/kg.

The term Cmax denotes the maximum level reached in the sampled fluid or tissue.

With `CC1(C)S[C@@H]2[C@H](NC(=O)Cc3ccccc3)C(=O)N2[C@H]1C(=O)O` [Penicillin G], the Cmax was 1.2 to 2.4 µg/mL in data set [1] (baboon, in vivo, rectal suppository, Kontrolle ohne Resorptionsverstärker, read-out: Cmax Bereich); 2 to 11.1 µg/mL in data set [1] (baboon, in vivo, rectal suppository, Mit Resorptionsverstärker System: 500 mg Antibiotikum, 125 mg Laureth-12, 250 mg Labrasol, 1125 mg Witepsol H15, read-out: Cmax Bereich); 3.5 ± 1 µg/mL in data set [2] (rat, in vivo, 5 mg, Cmax, Acconon Con + Laureth-12 (weight ratio 8:1)); 0.5 ± 0.1 µg/mL in data set [2] (rat, in vivo, 5 mg, Cmax, Kontrolle Wasser, no absorption enhancer); 5.2 ± 1.6 µg/mL in data set [2] (rat, in vivo, 5 mg, Cmax, Labrasol + Laureth-12 (weight ratio 8:1)); 7.4 ± 2.4 µg/mL in data set [2] (rat, in vivo, 5 mg, Cmax, Natriumcaprylat (30%) + Laureth-12 (weight ratio 8:1)). Also, the “% Bioverfügbarkeit” value in data set [1] (setting [6]) worked out at 17.4 ± 8.0%; in data set [1] (setting [7]) it was 38.2 ± 26.1%.

As to Gentamicin, the Cmax in data set [2] (Acconon Con + Laureth-12 (weight ratio 8:1)) was determined as 15.4 ± 2.3 µg/mL; in data set [2] (Kontrolle Wasser, no absorption enhancer), 3.9 µg/mL; in data set [2] (Labrasol + Laureth-12 (weight ratio 8:1)), 9.6 ± 1.9 µg/mL; in data set [2] (Natriumcaprylat (30%) + Laureth-12 (weight ratio 8:1)), 14.1 ± 6.9 µg/mL.

Consider `CN[C@H](CC(C)C)C(=O)N[C@H]1C(=O)N[C@@H](CC(N)=O)C(=O)N[C@H]2C(=O)N[C@H]3C(=O)N[C@H](C(=O)N[C@H](C(=O)O)c4cc(O)cc(O)c4-c4cc3ccc4O)[C@H](O)c3ccc(c(Cl)c3)Oc3cc2cc(c3O[C@@H]2O[C@H](CO)[C@@H](O)[C@H](O)[C@H]2O[C@H]2C[C@](C)(N)[C@H](O)[C@H](C)O2)Oc2ccc(cc2Cl)[C@H]1O` [Vancomycin], for which the Cmax in data set [2] (female, rat, in vivo, 5 mg/0,5 ml, Cmax, Kontrolle Wasser, no absorption enhancer) was determined as 2.9 ± 0.6 µg/mL; in data set [2] (female, rat, in vivo, 5 mg/0,5 ml, Cmax, Labrasol + Laureth-12 (weight ratio 8:1)), 6.9 ± 1 µg/mL; in data set [2] (female, rat, in vivo, 5 mg/0,5 ml, Cmax, Natriumcaprylat (30%) + Laureth-12 (weight ratio 8:1)), 9.8 ± 3.5 µg/mL.

For `CO/N=C(\C(=O)N[C@@H]1C(=O)N2C(C(=O)O)=C(CSc3nc(=O)c(=O)[nH]n3C)CS[C@H]12)c1csc(N)n1` [Ceftriaxon], the Bioverfügbarkeit in data set [3] (4 enteric-coated capsules each 300 mg Ceftriaxonnatrium, 225 mg Labrasol, 75 mg Laureth-12, 380 mg Witepsol H15) is listed as 10,8 ± 6,5%; in data set [3] (setting [8]), 0%; in data set [3] (formulation 300 mg Ceftriaxonnatrium, 75 mg Laureth-12, 415 mg Witepsol H15) it was 15,7 + 9,9%; in data set [4] (setting [9]) it was 34,2 ± 14,0%; in data set [4] (setting [8]) it was 0%; in data set [4] (formulation 300 mg Ceftriaxonnatrium, 200 mg Natriumcaprylat, 75 mg Laureth-12, 415 mg Witepsol H15), 22,4 + 13,5%. Moreover, the Bioverfügbarkeit in data set [1] (rectal, Kontrollwert: 600 mg Ceftriaxonnatrium in suppository mass without absorption enhancer) is listed as 4,3%; in data set [1] (rectal, formulation 600 mg Ceftriaxonnatrium, 200 mg Natriumcaprylat, 125 mg Laureth-12, 1075 mg Witepsol H15), 49,3 ± 13.7%; in data set [5] (setting [12]) it was 45,4 ± 18,2%; in data set [5] (enteral, Kontrolle: solution of Ceftriaxon in water equivalent to 25 mg/kg, no absorption enhancer), 0%. Moreover, the Cmax in data set [3] (300 mg per capsule, formulation 300 mg Ceftriaxonnatrium, 200 ml Natriumcaprylat, 75 mg Laureth-12, 415 mg Witepsol H15, read-out: Cmax-Bereich) was 15 to 66.3 µg/mL; in data set [3] (1200 mg, 4 enteric-coated capsules each 300 mg Ceftriaxonnatrium, 225 mg Labrasol, 75 mg Laureth-12, 380 mg Witepsol H15, read-out: Cmax-Bereich), 5.5 to 59.8 µg/mL; in data set [4] (300 mg per capsule, formulation 300 mg Ceftriaxonnatrium, 200 mg Natriumcaprylat, 75 mg Laureth-12, 415 mg Witepsol H15), 14.4 µg/mL; in data set [4] (setting [9]), 21.6 µg/mL; in data set [1] (setting [10]) it was 18.2 to 49.6 µg/mL; in data set [1] (both sexes, monkey, plasma, 600 mg, rectal, Kontrollwert: 600 mg Ceftriaxonnatrium in suppository mass without absorption enhancer, read-out: Cmax-Bereich) it was 0.3 to 9 µg/mL. Further, the Cmax in data set [1] (both sexes, monkey, plasma, 600 mg, rectal, formulation 600 mg Ceftriaxonnatrium, 200 mg Natriumcaprylat, 125 mg Laureth-12, 1075 mg Witepsol H15, read-out: Cmax-Bereich) was 68.1 to 1000 µg/mL; in data set [1] (setting [11]), 0.3 to 9 µg/mL; in data set [5] (setting [12]), 19.5 µg/mL; in data set [5] (other: enteral, enteral, Kontrolle: solution of Ceftriaxon in water equivalent to 25 mg/kg, no absorption enhancer) it was 0.5 µg/mL; in data set [2] (female, rat, plasma, 5 mg/0,5 ml, Cmax, Acconon Con + Laureth-12 (weight ratio 8:1)), 38.8 ± 22.6 µg/mL; in data set [2] (female, rat, plasma, 5 mg/0,5 ml, Cmax, Kontrolle Wasser, no absorption enhancer), 2.4 ± 1.9 µg/mL. Besides, the Cmax in data set [2] (female, rat, plasma, 5 mg/0,5 ml, Cmax, Labrasol + Laureth-12 (weight ratio 8:1)) came out at 106 ± 23 µg/mL; in data set [2] (female, rat, plasma, 5 mg/0,5 ml, Cmax, Natriumcaprylat (30%) + Laureth-12 (weight ratio 8:1)), 53.7 ± 13.3 µg/mL. Besides, the “% Bioverfügbarkeit” value in data set [1] (setting [6]) is given as 4.3 ± 2.8%; in data set [1] (setting [7]), 31.5 ± 13.1%.

As to `Cn1nnnc1SCC1=C(C(=O)O)N2C(=O)[C@@H](NC(=O)[C@H](O)c3ccccc3)[C@H]2SC1` [Cefamandole, Cefamandol], the Cmax in data set [1] (setting [10]) lay within 5.9 to 16.4 µg/mL; in data set [1] (setting [11]), 2.3 to 4.6 µg/mL. The “% Bioverfügbarkeit” value was 6.0 ± 2.3% in data set [1] (setting [6]) and 46.5 ± 16.6% in data set [1] (setting [7]).

As for `CO[C@@]1(NC(=O)Cc2cccs2)C(=O)N2C(C(=O)O)=C(COC(N)=O)CS[C@@H]21` [Cefoxitin], in data set [1] (setting [10]), the Cmax was 4.7 to 10.8 µg/mL. Besides, the “% Bioverfügbarkeit” value in data set [1] (setting [6]) was determined as 0%; in data set [1] (setting [7]), 77.0 ± 22.5%.
